Source: patent US8829027B2, “Urea derivatives of substituted nortropanes, medicaments containing such compounds and their use” (Boehringer Ingelheim International GmbH, priority 2008, dated 2014)

Target: T1, 11β-HSD1 (Homo sapiens, UniProt P28845)
T1 construct: detecting cortisol generated from cortisterone by human liver microsomes; from tissue; host or cells: human liver microsomes
Test: In vitro inhibition of 11β-HSD1, HTRF detection of cortisol generated from cortisone by human liver microsomes
Format: biochemical
Conditions: compound concentration 1 μM, 100% indicates no inhibition, zero or below zero indicates complete inhibition
Description: Briefly, compounds are incubated for 1 hour at 37° C. in Tris buffer (20 mM tris, 5 mM EDTA, pH 6.0) containing NADPH (200 μM) and cortisone (80 nM). Cortisol generated in the reaction is then detected with a competitive immunoassay, involving two HTRF conjugates: cortisol linked to XL665 and anti-cortisol antibody labeled with Europium cryptate. The incubation period for detection reaction is typically 2 hours. The amount of cortisol is determined by reading the time-resolved fluorescence of the wells (Ex 320/75 nm; Em 615/8.5 nm and 665/7.5 nm). The ratio of the two emission signals is then calculated (Em665*10000/Em615). […] Each assay also contains a calibration curve with cortisol to transform the fluorescent data into cortisol concentrations. Percent inhibition (% CTL) of each compound is determined relative to the carbenoxolone signal and IC50 curves are generated.
The % CTL values of some example compounds at a concentration of 1 μM are provided in the following Table 2 wherein 100% indicates no inhibition and a value of zero or below zero indicates complete inhibition. The measurement of % CTL is described hereinbefore.

T1 sequence (P28845 whole entry): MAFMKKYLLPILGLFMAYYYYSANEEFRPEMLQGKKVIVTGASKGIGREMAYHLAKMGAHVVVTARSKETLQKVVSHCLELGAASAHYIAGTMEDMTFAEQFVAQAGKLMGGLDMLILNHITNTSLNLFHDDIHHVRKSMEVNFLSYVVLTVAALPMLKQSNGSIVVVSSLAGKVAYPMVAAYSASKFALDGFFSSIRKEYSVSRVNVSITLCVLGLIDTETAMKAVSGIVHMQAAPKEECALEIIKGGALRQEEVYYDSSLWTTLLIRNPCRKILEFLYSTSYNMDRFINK

O=C(N1CCCCC1)N1[C@@H]2CC[C@H]1C[C@@H](c1ccc(F)cc1)C2 [Example 1, endo-[3-(4-Fluoro-phenyl)-8-aza-bicyclo[3.2.1]oct-8-yl]-piperidin-1-yl-methanone] was tested, and the “11β-HSD1 remaining activity (% of control)” value was −49 % CTL.

For O=C(N1CCCC1)N1[C@@H]2CC[C@H]1C[C@@H](c1ccc(F)cc1)C2 [Example 2, endo-[3-(4-Fluoro-phenyl)-8-aza-bicyclo[3.2.1]oct-8-yl]-pyrrolidin-1-yl-methanone], the “11β-HSD1 remaining activity (% of control)” value was −3 % CTL.

O=C(N1CCOCC1)N1[C@@H]2CC[C@H]1C[C@@H](c1ccc(F)cc1)C2 [Example 3, endo-[3-(4-Fluoro-phenyl)-8-aza-bicyclo[3.2.1]oct-8-yl]-morpholin-4-yl-methanone] was tested, and the “11β-HSD1 remaining activity (% of control)” value was −29 % CTL.

For CC(=O)NC1CCN(C(=O)N2[C@@H]3CC[C@H]2C[C@@H](c2ccc(F)cc2)C3)CC1 [Example 4, endo-N-{1-[3-(4-Fluoro-phenyl)-8-aza-bicyclo[3.2.1]octane-8-carbonyl]-piperidin-4-yl}-acetamide], the “11β-HSD1 remaining activity (% of control)” value was 46 % CTL.

In the case of O=C(N1CCC(O)CC1)N1[C@@H]2CC[C@H]1C[C@@H](c1ccc(F)cc1)C2 [Example 5, endo-[3-(4-Fluoro-phenyl)-8-aza-bicyclo[3.2.1]oct-8-yl]-(4-hydroxy-piperidin-1-yl)-methanone], the “11β-HSD1 remaining activity (% of control)” value is reported as −46 % CTL.

O=C(N1CCc2nc[nH]c2C1)N1[C@@H]2CC[C@H]1C[C@@H](c1ccc(F)cc1)C2 [Example 6, endo-[3-(4-Fluoro-phenyl)-8-aza-bicyclo[3.2.1]oct-8-yl]-(3,4,6,7-tetrahydro-imidazo[4,5-c]pyridin-5-yl)-methanone] was tested, and the “11β-HSD1 remaining activity (% of control)” value was 65 % CTL.

With O=C(N1CCc2sccc2C1)N1[C@@H]2CC[C@H]1C[C@@H](c1ccc(F)cc1)C2 [Example 7, endo-(6,7-Dihydro-4H-thieno[3,2-c]pyridin-5-yl)-[3-(4-fluoro-phenyl)-8-aza-bicyclo[3.2.1]oct-8-yl]-methanone] the “11β-HSD1 remaining activity (% of control)” value was −57 % CTL.

For O=C(N1[C@@H]2CC[C@H]1C[C@@H](O)C2)N1[C@@H]2CC[C@H]1C[C@@H](c1ccc(F)cc1)C2 [Example 8, [endo-3-(4-Fluoro-phenyl)-8-aza-bicyclo[3.2.1]oct-8-yl]-(endo-3-hydroxy-8-aza-bicyclo[3.2.1]oct-8-yl)-methanone], the “11β-HSD1 remaining activity (% of control)” value was −59 % CTL.

With NC(=O)C1CCN(C(=O)N2[C@@H]3CC[C@H]2C[C@@H](c2ccc(F)cc2)C3)CC1 [Example 9, endo-1-[3-(4-Fluoro-phenyl)-8-aza-bicyclo[3.2.1]octane-8-carbonyl]-piperidine-4-carboxylic acid amide] the “11β-HSD1 remaining activity (% of control)” value was −49 % CTL.

With O=C(O)C1CCN(C(=O)N2[C@@H]3CC[C@H]2C[C@@H](c2ccc(F)cc2)C3)CC1 [Example 11, endo-1-[3-(4-Fluoro-phenyl)-8-aza-bicyclo[3.2.1]octane-8-carbonyl]-piperidine-4-carboxylic acid] the “11β-HSD1 remaining activity (% of control)” value was 4 % CTL.

With N#CC1CCN(C(=O)N2[C@@H]3CC[C@H]2C[C@@H](c2ccc(F)cc2)C3)CC1 [Example 12, endo-1-[3-(4-Fluoro-phenyl)-8-aza-bicyclo[3.2.1]octane-8-carbonyl]-piperidine-4-carbonitrile] the “11β-HSD1 remaining activity (% of control)” value was −27 % CTL.

With COC1CCN(C(=O)N2[C@@H]3CC[C@H]2C[C@@H](c2ccc(F)cc2)C3)CC1 [Example 13, endo-[3-(4-Fluoro-phenyl)-8-aza-bicyclo[3.2.1]oct-8-yl]-(4-methoxy-piperidin-1-yl)-methanone] the “11β-HSD1 remaining activity (% of control)” value was −25 % CTL.

In the case of O=C(N1CCC(O)(C(F)(F)F)CC1)N1[C@@H]2CC[C@H]1C[C@@H](c1ccc(F)cc1)C2 [Example 14, endo-[3-(4-Fluoro-phenyl)-8-aza-bicyclo[3.2.1]oct-8-yl]-(4-hydroxy-4-trifluoromethyl-piperidin-1-yl)-methanone], the “11β-HSD1 remaining activity (% of control)” value is reported as −30 % CTL.

In the case of COC(=O)C1CCN(C(=O)N2[C@@H]3CC[C@H]2C[C@@H](c2ccc(F)cc2)C3)CC1 [Example 15, endo-1-[3-(4-Fluoro-phenyl)-8-aza-bicyclo[3.2.1]octane-8-carbonyl]-piperidine-4-carboxylic acid methyl ester], the “11β-HSD1 remaining activity (% of control)” value is reported as 20 % CTL.

In the case of CC1(O)CCN(C(=O)N2[C@@H]3CC[C@H]2C[C@@H](c2ccc(F)cc2)C3)CC1 [Example 16, endo-[3-(4-Fluoro-phenyl)-8-aza-bicyclo[3.2.1]oct-8-yl]-(4-hydroxy-4-methyl-piperidin-1-yl)-methanone], the “11β-HSD1 remaining activity (% of control)” value is reported as −23 % CTL.

O=C(N1C2CCC1CC(O)(C(F)(F)F)C2)N1[C@@H]2CC[C@H]1C[C@@H](c1ccc(F)cc1)C2 (stereo partly drawn) [Example 17, endo-[3-(4-Fluoro-phenyl)-8-aza-bicyclo[3.2.1]oct-8-yl]-(3-hydroxy-3-trifluoromethyl-8-aza-bicyclo[3.2.1]oct-8-yl)-methanone] was tested, and the “11β-HSD1 remaining activity (% of control)” value was −11 % CTL.

In the case of O=C(N1CCCC2(CCCNC2=O)C1)N1[C@@H]2CC[C@H]1C[C@@H](c1ccc(F)cc1)C2 (stereo partly drawn) [Example 18, endo-8-[3-(4-Fluoro-phenyl)-8-aza-bicyclo[3.2.1]octane-8-carbonyl]-2,8-diaza-spiro[5.5]undecan-1-one], the “11β-HSD1 remaining activity (% of control)” value is reported as 62 % CTL.

For O=C(N1CCCC2(CCNC2=O)C1)N1[C@@H]2CC[C@H]1C[C@@H](c1ccc(F)cc1)C2 (stereo partly drawn) [Example 19, endo-7-[3-(4-Fluoro-phenyl)-8-aza-bicyclo[3.2.1]octane-8-carbonyl]-2,7-diaza-spiro[4.5]decan-1-one], the “11β-HSD1 remaining activity (% of control)” value was 34 % CTL.

O=C(N1CCCC(CO)C1)N1[C@@H]2CC[C@H]1C[C@@H](c1ccc(F)cc1)C2 (stereo partly drawn) [Example 20, endo-[3-(4-Fluoro-phenyl)-8-aza-bicyclo[3.2.1]oct-8-yl]-(3-hydroxymethyl-piperidin-1-yl)-methanone] was tested, and the “11β-HSD1 remaining activity (% of control)” value was −17 % CTL.

In the case of O=C(N1CCC(CO)CC1)N1[C@@H]2CC[C@H]1C[C@@H](c1ccc(F)cc1)C2 [Example 21, endo-[3-(4-Fluoro-phenyl)-8-aza-bicyclo[3.2.1]oct-8-yl]-(4-hydroxymethyl-piperidin-1-yl)-methanone], the “11β-HSD1 remaining activity (% of control)” value is reported as −20 % CTL.

For CC(C)(O)C1CCN(C(=O)N2[C@@H]3CC[C@H]2C[C@@H](c2ccc(F)cc2)C3)CC1 [Example 22, endo-[3-(4-Fluoro-phenyl)-8-aza-bicyclo[3.2.1]oct-8-yl]-[4-(1-hydroxy-1-methyl-ethyl)-piperidin-1-yl]-methanone], the “11β-HSD1 remaining activity (% of control)” value was −18 % CTL.
